Reference: patent publication US8979831B2 (priority 2008, dated 2015)
Where “and” joins values, the source holds several entries; their conditions need not be identical. Identical values can stand only once. Like-named read-outs stand apart in the source and are kept apart here.

Experiments:
porcine liver samples = settings: for Tissue destruction, visual observation: injected alone into porcine liver
liver parenchyma = test system: liver parenchyma; set-up: species or system porcine; settings: for Final thermocouple pH after five minutes: after NaOH pre-injection
[1] = 100 microliters alone, 0:00 min
[2] = 100 microliters alone, 0:15 min
[3] = 100 microliters alone, 0:30 min
[4] = 100 microliters alone, 1:00 min
[5] = 100 microliters alone, 1:15 min

Structure (SMILES): CC(=O)OC(C)=O [Acetic Anhydride]
- Recorded temperature changes (porcine liver samples): 0.0-2.94 degrees C.
- Temperature change from baseline (porcine liver samples): ≥ 1.0 degree C.
- pH (porcine liver samples; [1]): 6.33 and 7.52 and 7.1 and 6.14 and 6.23
- pH (porcine liver samples; [2]): 5.2 and 3.75 and 3.34 and 5.7 and 6.03
- pH (porcine liver samples; [3]): 5.06 and 3.54 and 3.2 and 5.63 and 6.01
- pH (porcine liver samples; 100 microliters alone, 0:45 min): 4.9 and 3.43 and 3.11 and 5.54 and 5.92
- pH (porcine liver samples; [4]): 4.81 and 3.36 and 3.05 and 5.42 and 5.91
- pH (porcine liver samples; [5]): 4.75 and 3.27 and 2.98 and 5.25 and 5.87
- pH (porcine liver samples; 100 microliters alone, 2:00 min): 4.47 and 3.09 and 2.77 and 4.3 and 5.5
- pH (porcine liver samples; 100 microliters alone, 2:15 min): 4.4 and 3.03 and 2.75 and 4.23 and 5.3
- pH (porcine liver samples; 100 microliters alone, 2:30 min): 4.35 and 2.96 and 2.71 and 4.21 and 4.79
- pH (porcine liver samples; 100 microliters alone, 2:45 min): 4.3 and 2.92 and 2.68 and 4.16 and 4.65
- pH (porcine liver samples; 100 microliters alone, 3:00 min): 4.25 and 2.9 and 2.65 and 4.12 and 4.57
- pH (porcine liver samples; 100 microliters alone, 3:15 min): 4.22 and 2.88 and 2.61 and 4.01 and 4.48
- pH (porcine liver samples; 100 microliters alone, 3:30 min): 4.2 and 2.84 and 2.57 and 4.01 and 4.46
- pH (porcine liver samples; 100 microliters alone, 3:45 min): 4.16 and 2.81 and 2.54 and 3.97 and 4.4
- pH (porcine liver samples; 100 microliters alone, 4:00 min): 4.14 and 2.78 and 2.5 and 3.93 and 4.38
- pH (porcine liver samples; 100 microliters alone, 4:15 min): 4.1 and 2.75 and 2.49 and 3.86 and 4.35
- pH (porcine liver samples; 100 microliters alone, 4:30 min): 4.09 and 2.74 and 2.46 and 3.84 and 4.32
- pH (porcine liver samples; 100 microliters alone, 4:45 min): 4.06 and 2.72 and 2.42 and 3.8 and 4.3
- pH (porcine liver samples; 100 microliters alone, 5:00 min): 4.05 and 2.7 and 2.41 and 3.74 and 4.29
- pH (porcine liver samples; 200 microliters alone, 1:00 min): 4.91 and 3.36 and 3.21 and 5.41 and 4.80
- Changes, pH (lower line) (porcine liver samples; 200 microliters alone, lower line of Changes (fits 0:00 vs 5:00)): 1.85 and 2.70 and 3.42 and 2.10 and 2.42
- Injections producing greater than one degree Celsius temperature change (porcine liver samples; 300 microliters alone): three out of five injections
- Tissue destruction, visual observation (porcine liver samples): larger volumes of Acetic Anhydride correlated with greater areas of tissue destruction
- Recorded temperature change (liver parenchyma): 1.4-9.4 degrees C.
- Final thermocouple pH after five minutes (liver parenchyma): overwhelmingly basic

Structure (SMILES): CC(=O)Cl [Acetyl Chloride]
- Temp (porcine liver samples; 100 microliters alone, different temp probe, 0:00 min): 16.4 C. and 17.1 C. and 17.4 C. and 16.6 C. and 17 C.
- Temp (porcine liver samples; 100 microliters alone, different temp probe, 0:30 min): 22.5 C. and 32 C. and 39 C. and 42.2 C. and 32.3 C.
- Temp (porcine liver samples; 100 microliters alone, different temp probe, 0:45 min): 21.5 C. and 27.5 C. and 33.5 C. and 33.9 C. and 27.3 C.
- Temp (porcine liver samples; 100 microliters alone, different temp probe, 1:00 min): 21 C. and 25 C. and 30.6 C. and 30.7 C. and 25.7 C.
- Temp (porcine liver samples; 100 microliters alone, different temp probe, 1:15 min): 20.2 C. and 24 C. and 28.4 C. and 27.8 C. and 23.9 C.
- Temp (porcine liver samples; 100 microliters alone, different temp probe, 1:30 min): 19.6 C. and 23.5 C. and 27 C. and 26.2 C. and 23.1 C.
- Temp (porcine liver samples; 100 microliters alone, different temp probe, 1:45 min): 19 C. and 22.7 C. and 25.6 C. and 25 C. and 22.3 C.
- Temp (porcine liver samples; 100 microliters alone, different temp probe, 2:00 min): 18.4 C. and 22.1 C. and 24.7 C. and 24.2 C. and 21.6 C.
- Temp (porcine liver samples; 100 microliters alone, different temp probe, 2:15 min): 18.3 C. and 21.4 C. and 23.9 C. and 23.2 C. and 21.1 C.
- Temp (porcine liver samples; 100 microliters alone, different temp probe, 2:30 min): 18.1 C. and 21.1 C. and 23.3 C. and 22.6 C. and 20.6 C.
- Temp (porcine liver samples; 100 microliters alone, different temp probe, 2:45 min): 18 C. and 20.6 C. and 22.6 C. and 22 C. and 20.2 C.
- Temp (porcine liver samples; 100 microliters alone, different temp probe, 3:00 min): 17.9 C. and 20.3 C. and 22.1 C. and 21.5 C. and 19.9 C.
- Temp (porcine liver samples; 100 microliters alone, different temp probe, 3:15 min): 17.8 C. and 20.1 C. and 21.7 C. and 21.1 C. and 19.6 C.
- Temp (porcine liver samples; 100 microliters alone, different temp probe, 3:45 min): 17.6 C. and 19.5 C. and 21 C. and 20.4 C. and 19.1 C.
- Temp (porcine liver samples; 100 microliters alone, different temp probe, 4:00 min): 17.5 C. and 19.4 C. and 20.7 C. and 20.1 C. and 18.9 C.
- Temp (porcine liver samples; 100 microliters alone, different temp probe, 4:15 min): 17.5 C. and 19.2 C. and 20.4 C. and 19.9 C. and 18.9 C.
- Temp (porcine liver samples; 100 microliters alone, different temp probe, 4:30 min): 17.4 C. and 19 C. and 20.2 C. and 19.6 C. and 18.6 C.
- Temp (porcine liver samples; 100 microliters alone, different temp probe, 4:45 min): 17.3 C. and 18.8 C. and 20 C. and 19.4 C. and 18.4 C.
- Temp (porcine liver samples; 100 microliters alone, different temp probe, 5:00 min): 17.3 C. and 18.6 C. and 19.8 C. and 19.2 C. and 18.3 C.
- pH (porcine liver samples; [1]): 6.14 and 6.55 and 6.5 and 5.7
- pH (porcine liver samples; [2]): 3.1 and 4.67 and 4.62 and 4.82
- pH (porcine liver samples; [3]): 2.5 and 3.59 and 3.32 and 4.57
- Temp (porcine liver samples; [4]): 27.4 C. and 24.5 C. and 23.4 C. and 22.8 C.
- Temp (porcine liver samples; [5]): 26.2 C.
- Tissue destruction, visual observation (porcine liver samples): more violent and rapid tissue destruction than Acetic Anhydride
- Temperature changes (liver parenchyma; 100, 200, 300 microliters after 100 or 200 microliters of 1M-15M NaOH, 21 injections): 7.9-32 degrees Celsius
- Final thermocouple pH after five minutes (liver parenchyma): more acidic pH
- Temperature changes in the first thirty seconds after injection (liver parenchyma; eleven of the twenty-one runs, with NaOH): 20-30 degrees Celsius
